# Data reported in patent US8617523B2, “Anti-biofilm carbonate compounds for use in oral care compositions” (Colgate-Palmolive Company, priority 2009, dated 2013).
# Columns and labels:
# [1] = tested on: A. naeslundii biofilm; assay: crystal violet assay, anti-biofilm (MBEC); format: cell-based, Actinomyces naeslundii; conditions: single species of A. naeslundii biofilm
# [2] = tested on: A. naeslundii; assay: Minimal Inhibitory Concentration (MIC) anti-microbial test; format: cell-based; conditions: Actinomyces naeslundii; single species of A. naeslundii biofilm; read-out: MIC (Minimum Inhibitory Concentration, bactericidal)
# Procedure: The anti-microbial test was measured according to the SOP No. ATO-5308-00 for determination of Minimal Inhibitory Concenctration (MIC).
SMILES,"MBEC (Minimum Biofilm Eradication Concentration, anti-biofilm) [1] [ppm]",MIC [2] [µg/mL]
CC(C)C(O)C(C)(C)COC(=O)OC1CCCC1 (stereo not drawn),156,625
CC(CCCC(C)(C)O)CCOC(=O)Oc1ccccc1 (stereo not drawn),78,156
CCCCC(CC)COC(=O)OCCCCCCO (stereo not drawn),39,78
